Article PMC4608732, “Phosphorylation and Internalization of Lysophosphatidic Acid Receptors LPA1, LPA2, and LPA3” (PLoS ONE, 2015)

How the values were obtained:
[1] = molecular target: T1, LPA1 receptor (Mus musculus, UniProt P61793); experiment: Heterologous (PMA) / homologous (LPA) desensitization of LPA-induced calcium response, LPA1 cells; type: cell-based
T1 construct: expressed in transfected cells
Procedure: (§1) This procedure has been described previously. Briefly, cells were loaded with 2.5 μM Fura-2 AM in Krebs–Ringer–Hepes containing 0.05% bovine serum albumin (pH 7.4) for 1 h at 37°C and then washed to eliminate unincorporated indicator. Determinations were carried in an AMINCO-Bowman Series 2 luminescence spectrometer, employing 340 and 380 nm excitation wavelengths and an emission wavelength of 510 nm; chopper interval was 0.5 sec. The intracellular calcium concentration was calculated as described by Grynkiewicz et al.. In the experiments where prolonged incubation was required (resensitization studies), cells were stimulated, washed, and the incubation was continued in the presence of Fura-2 AM, to avoid dye depletion.
(§2) Agonists-mediated decreases occurred in a concentration-dependent fashion, with a maximum at the concentration of ~ 100 nM. […] It is worth noticing that the shift in the curves was more pronounced in LPA1- or LPA3-expressing cells, than in those that expressed the LPA2 subtype.
(§3) Plotted are the increases in calcium as the percentage of that obtained in cells preincubated without any agent as mean ± S. E. M. of 6 experiments using different cell preparations.

[2] = molecular target: T2, LPA2 receptor (Homo sapiens, UniProt Q9HBW0); experiment: Heterologous (PMA) / homologous (LPA) desensitization of LPA-induced calcium response, LPA2 cells; type: cell-based
Procedure: as §1, §2, §3

[3] = molecular target: T3, LPA3 receptor (Homo sapiens, UniProt Q9UBY5); experiment: Heterologous (PMA) / homologous (LPA) desensitization of LPA-induced calcium response, LPA3 cells; type: cell-based
T3 sequence (Q9UBY5 1-353): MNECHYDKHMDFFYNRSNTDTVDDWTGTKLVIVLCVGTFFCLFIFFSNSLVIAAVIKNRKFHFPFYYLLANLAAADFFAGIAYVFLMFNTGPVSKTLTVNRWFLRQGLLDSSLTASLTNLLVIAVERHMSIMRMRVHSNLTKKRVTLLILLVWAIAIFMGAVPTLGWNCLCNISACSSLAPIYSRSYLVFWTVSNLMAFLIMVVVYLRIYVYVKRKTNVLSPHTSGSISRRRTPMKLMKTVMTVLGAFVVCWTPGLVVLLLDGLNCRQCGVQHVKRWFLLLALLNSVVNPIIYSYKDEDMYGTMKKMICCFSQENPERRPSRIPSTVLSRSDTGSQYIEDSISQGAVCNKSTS
Procedure: as §1, §2, §3

[4] = molecular target: T1, LPA1 receptor; experiment: LPA1 receptor phosphorylation ([32P]Pi labeling, immunoprecipitation); type: cell-based
Procedure: (§4) The procedure was very similar to that previously described to study LPA1 receptor phosphorylation. In brief, cells were incubated in phosphate-free Dulbecco’s modified Eagle’s medium containing 100 μCi/ml [^32P]Pi for 3 h at 37°C. LPA1- and LPA2-expressing cells were cultured in 6 well plates, whereas those expressing LPA3 receptors were cultured in 10 cm dishes. Labeled cells were stimulated with the agents tested and then washed twice with ice-cold phosphate buffered saline and solubilized in buffer containing 10 mM Tris, 150 mM NaCl, 1% sodium cholate, 1% Nonident P40, protease and phosphatase inhibitors, pH 7.4 [11, 12, 14]. The lysates were incubated overnight with protein A-agarose and anti-GFP serum with constant agitation at 4°C. Samples were washed and the pellets containing the immunocomplexes were solubilized in Laemmli’s sample buffer containing 5% β-mercaptoethanol. Proteins were separated using 10% SDS-PAGE and electrotransferred onto polyvinyliden fluoride membranes. Receptor phosphorylation was analyzed with a Molecular Dynamics Typhoon PhosphorImager and the ImageJ software (http://rsb.info.nih.gov/ij/).

[5] = molecular target: T2, LPA2 receptor; experiment: LPA2 receptor phosphorylation ([32P]Pi labeling, immunoprecipitation); type: cell-based
Procedure: as §4

[6] = molecular target: T3, LPA3 receptor; experiment: LPA3 receptor phosphorylation ([32P]Pi labeling, immunoprecipitation); type: cell-based
[7] = molecular target: T1, LPA1 receptor; experiment: LPA1 receptor internalization, confocal imaging; type: cell-based; settings: 1 μM agent, 30 or 60 min, LPA1 cells
Procedure: (§5) Cells were seeded at approximately 30% confluence onto glass-bottomed Petri dishes and cultured for 3 h at 37°C in media containing 1% serum. After treatment, cells were washed three times with phosphate buffered saline and fixed with 4% paraformaldehyde in 0.1 M phosphate buffer for 20 min at room temperature; samples were then washed three additional times with phosphate buffered saline. The fluorescent images were acquired with an Olympus Fluoview FV10 confocal microscope with a water-immersion objective (60X). To determine receptor internalization, the plasma membrane was delineated utilizing the differential interference contrast imaging, and fluorescence in this region was quantified employing the ImageJ software. At least 5 or 6 images of different cultures were taken for each condition. Data were normalized as follows: for each experiment, fluorescence (arbitrary units) at the plasma membrane of baseline samples were pooled and the average was considered as 100%.

[8] = molecular target: T2, LPA2 receptor; experiment: LPA2 receptor internalization, confocal imaging; type: cell-based; settings: 1 μM agent, 30 or 60 min, LPA2 cells
Procedure: as §5

[9] = molecular target: T3, LPA3 receptor; experiment: LPA3 receptor internalization, confocal imaging; type: cell-based; settings: 1 μM agent, 30 or 60 min, LPA3 cells
Procedure: as §5

[10] = system: ERK 1/2; experiment: ERK 1/2 phosphorylation (Western blotting) in C9 cells overexpressing LPA1-3; type: cell-based, rat; settings: 100 ng/ml EGF, 5 min, cells overexpressing LPA1-3
Procedure: Cells were cultured to near confluence in 6 well plates and stimulated with the agents tested for the times indicated. Total cellular extracts were obtained by lysing the cells in Laemmli’s sample buffer containing 5% β-mercaptoethanol. The cell extracts were subject to 10% SDS-PAGE and transferred to nitrocellulose membranes. Membranes from samples obtained in parallel were incubated overnight at 4°C, with anti-pERK 1/2 (1:2000) or anti ERK 1/2 (1:2000). The membranes were washed and incubated for 1 h at room temperature with a horseradish peroxidase-conjugated secondary antibody (1:10,000) for enhanced chemiluminescence detection.

[11] = read-out: IC50, inhibition of LPA-induced calcium response (heterologous desensitization)

T2 sequence (Q9HBW0 whole entry): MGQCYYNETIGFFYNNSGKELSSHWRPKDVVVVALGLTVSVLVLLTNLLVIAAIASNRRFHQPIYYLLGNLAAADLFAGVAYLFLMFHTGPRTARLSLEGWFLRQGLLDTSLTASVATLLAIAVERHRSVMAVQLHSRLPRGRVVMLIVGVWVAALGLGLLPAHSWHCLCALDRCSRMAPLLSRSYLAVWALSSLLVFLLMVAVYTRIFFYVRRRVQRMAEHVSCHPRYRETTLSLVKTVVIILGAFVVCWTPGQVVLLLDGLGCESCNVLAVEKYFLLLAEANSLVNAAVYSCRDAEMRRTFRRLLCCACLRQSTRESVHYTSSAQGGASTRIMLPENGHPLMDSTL
T1 sequence (P61793 whole entry): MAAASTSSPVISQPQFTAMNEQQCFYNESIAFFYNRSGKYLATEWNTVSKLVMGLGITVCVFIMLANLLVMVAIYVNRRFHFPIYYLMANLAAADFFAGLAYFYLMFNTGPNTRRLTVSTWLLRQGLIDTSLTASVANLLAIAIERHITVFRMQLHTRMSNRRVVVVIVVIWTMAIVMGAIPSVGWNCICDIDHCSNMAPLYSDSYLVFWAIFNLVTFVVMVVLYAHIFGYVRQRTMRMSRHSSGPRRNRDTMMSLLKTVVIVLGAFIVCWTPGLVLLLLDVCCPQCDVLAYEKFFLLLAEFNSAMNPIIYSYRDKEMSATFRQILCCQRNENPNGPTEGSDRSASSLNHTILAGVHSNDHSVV

Question: What does the source list for `CCCCCCCCCCCCCC(=O)O[C@@H]1[C@@H](C)[C@@]2(O)[C@@H](C=C(CO)C[C@]3(O)C(=O)C(C)=C[C@@H]23)[C@@H]2C(C)(C)[C@]12OC(C)=O` [PMA, phorbol myristate acetate]?
Answer: IC50 [1, 11]: 1 to 3 nM; remaining calcium response to LPA ([2]; LPA2 cells, highest PMA concentration tested): 30–40%; IC50 [2, 11]: 3 to 10 nM; IC50 [3, 11]: 3 to 10 nM; EC50 [4]: 3 to 10 nM; time to maximum receptor phosphorylation ([4]; 1 μM agent, LPA1 cells): ≤ 5 min; concentration at which receptor phosphorylation saturates ([4]; 15 min incubation, LPA1-overexpressing cells): 100 nM; time to maximum receptor phosphorylation ([5]; 1 μM agent, LPA2 cells): ≤ 5 min; concentration-response curve, receptor phosphorylation ([5]; 15 min incubation, LPA2-overexpressing cells, shift to higher concentrations): no clear saturation was obtained; EC50 [6]: 3 to 10 nM; time to maximum receptor phosphorylation ([6]; 1 μM agent, LPA3 cells): ≤ 5 min; concentration at which receptor phosphorylation saturates ([6]; 15 min incubation, LPA3-overexpressing cells): 100 nM; receptor internalization (fluorescence at the plasma membrane) [7]: markedly decreasing fluorescence at the plasma membrane level; receptor internalization (decrease in fluorescence at the plasma membrane, compared with other subtypes) [8]: much less intense; receptor internalization (fluorescence at the plasma membrane) [9]: markedly decreasing fluorescence at the plasma membrane level

Question: How did the “effect on LPA-induced desensitization” value ([1]; 15 min preincubation with inhibitor, 1 μM LPA, LPA1 cells) turn out when `CN(C)CCCn1cc(C2=C(c3c[nH]c4ccccc34)C(=O)NC2=O)c2ccccc21` [bisindolylmaleimide I, Bisindolylmaleimide I] was run?
Answer: unable to alter LPA-induced desensitization

Question: What about the “effect on PMA-induced desensitization” value ([1]; 15 min preincubation with inhibitor, 1 μM PMA, LPA1 cells) of the same compound?
Answer: markedly diminished PMA-induced desensitization

Question: What about the “effect on LPA-induced desensitization” value ([2]; 15 min preincubation with inhibitor, 1 μM LPA, LPA2 cells) of the same compound?
Answer: unable to alter LPA-induced desensitization

Question: And the “effect on PMA-induced desensitization” value ([2]; 15 min preincubation with inhibitor, 1 μM PMA, LPA2 cells)?
Answer: markedly diminished PMA-induced desensitization

Question: What about the “effect on LPA-induced desensitization” value ([3]; 15 min preincubation with inhibitor, 1 μM LPA, LPA3 cells) of the same compound?
Answer: unable to alter LPA-induced desensitization

Question: And the “effect on PMA-induced desensitization” value ([3]; 15 min preincubation with inhibitor, 1 μM PMA, LPA3 cells)?
Answer: markedly diminished PMA-induced desensitization

Question: How did the “increase in ERK phosphorylation” value [10] turn out when “EGF: epidermal growth factor, obtained from Preprotech (NSDSECPLSHDGYCLHDGVCMYIEALDKYACNCVVGYIGERCQYRDLKWWELR; UniProt P01133 971-1023, looked up)” was run?
Answer: ~ 4 fold
